According to US11161850B2, “Fused pyrazine derivatives as A2A / A2B inhibitors” (Incyte Corporation, priority 2018, dated 2021):
Where two headings read alike, the source gives them in different places.

How the values were obtained:
[1] = molecular target: human adenosine A2B receptor (Homo sapiens (Human), UniProt P29275); test: Adenosine A2B Receptor Cyclic AMP GS Assay; format: cell-based; details: A2B_cAMP_EC50 (nM), HEK-293 cells expressing human A2B, agonist NECA 12 nM
Experimental: Example B. Adenosine A2B Receptor Cyclic AMP GS Assay
Stably transfected HEK-293 cells expressing the human adenosine A2B receptor (Perkin Elmer) were maintained in MEM culture medium with 10% FBS and 100 μg/mL Geneticin (Life Technologies). 18 to 24 hours prior to assay, geneticin was removed from culture. The cisbio cAMP-GS Dynamic kit utilizing the FRET (Fluorescence Resonance Energy Transfer) technology was used to measure cAMP accumulation in the cells. Compounds of the present disclosure at an appropriate concentration were mixed with 10000 cells/well in white 96 well half area plates (Perkin Elmer) for 30 min at room temperature gently shaking. Agonist, NECA (R&D Technologies) at 12 nM was added to each well for 60 min at room temperature gently shaking. Detection reagents, d2-labeled cAMP (acceptor) and anti-cAMP cryptate (donor) were added to each well for 60 min at rt gently shaking. Plates were read on Pherastar (BMG Labtech), fluorescence ratio 665/620 was calculated and EC50 determination was performed by fitting the curve of percent of control versus the log of the compound concentration using GraphPad Prism.

[2] = molecular target: Adenosine A2A (Homo sapiens (Human), UniProt P29274); test: A2A Tag-Lite HTRF assay; format: binding
Chain of Adenosine A2A (P29274 whole entry): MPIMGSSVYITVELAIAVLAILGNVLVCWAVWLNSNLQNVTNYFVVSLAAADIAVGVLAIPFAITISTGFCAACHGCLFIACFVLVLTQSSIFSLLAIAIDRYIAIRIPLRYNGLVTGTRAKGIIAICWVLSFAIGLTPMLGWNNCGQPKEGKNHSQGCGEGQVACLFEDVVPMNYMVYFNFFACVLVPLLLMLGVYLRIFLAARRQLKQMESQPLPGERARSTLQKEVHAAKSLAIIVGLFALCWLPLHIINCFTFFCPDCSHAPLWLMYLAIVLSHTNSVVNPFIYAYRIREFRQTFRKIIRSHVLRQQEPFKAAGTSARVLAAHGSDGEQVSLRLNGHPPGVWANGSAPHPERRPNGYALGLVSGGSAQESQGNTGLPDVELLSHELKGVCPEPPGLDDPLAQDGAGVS
From the text: Example C. A2A Tag-Lite® HTRF Assay

[3] = Tag-Lite Adenosine A2A labeled cells, fluorescent ligand 12.5 nM, read-out: A2A_Ki
[4] = read-out: A2A_Ki, Tag-Lite Adenosine A2A labeled cells, fluorescent ligand 12.5 nM

Chain of human adenosine A2B receptor (P29275 whole entry): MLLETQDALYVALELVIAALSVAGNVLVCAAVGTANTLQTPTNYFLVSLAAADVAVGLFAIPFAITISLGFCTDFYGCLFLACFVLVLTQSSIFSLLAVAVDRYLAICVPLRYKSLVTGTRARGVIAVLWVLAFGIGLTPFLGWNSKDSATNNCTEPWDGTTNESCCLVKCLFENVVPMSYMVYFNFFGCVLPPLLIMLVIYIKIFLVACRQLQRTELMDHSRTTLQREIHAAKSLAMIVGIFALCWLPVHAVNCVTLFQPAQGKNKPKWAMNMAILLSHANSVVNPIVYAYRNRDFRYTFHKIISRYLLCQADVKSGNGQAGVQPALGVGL

N#Cc1cccc(-c2nc(N)c3nc(C(O)c4c(F)cccc4F)nn3c2-c2ccc3nncn3c2)c1 (racemic) [Example 104, 3-(5-([1,2,4]triazolo[4,3-a]pyridin-6-yl)-8-amino-2-((2,6-difluorophenyl)(hydroxy)methyl)-[1,2,4]triazolo[1,5-a]pyrazin-6-yl)benzonitrile]
EC50 [1]: 10 to 100 nM | Ki [2, 3]: < 0.01 µM

N#Cc1cccc(-c2nc(N)c3nc(Cc4cccn5ccnc45)nn3c2-c2ccncn2)c1 [Example 45, 3-(8-Amino-2-(imidazo[1,2-a]pyridin-8-ylmethyl)-5-(pyrimidin-4-yl)-[1,2,4]triazolo[1,5-a]pyrazin-6-yl)benzonitrile]
EC50 [1]: < 10 nM | Ki [2, 3]: < 0.01 µM

Cc1ncoc1-c1c(-c2cccc(C#N)c2)nc(N)c2nc(Cc3ccccn3)nn12 [Example 42, 3-(8-Amino-5-(4-methyloxazol-5-yl)-2-(pyridin-2-ylmethyl)-[1,2,4]triazolo[1,5-a]pyrazin-6-yl)benzonitrile]
EC50 [1]: < 10 nM | Ki [2, 3]: < 0.01 µM

Cc1n[nH]cc1-c1c(-c2cccc(C#N)c2)nc(N)c2nc(C(O)c3c(F)cccc3F)nn12 (single isomer, unassigned) [Example 102, 3-(8-amino-2-((2,6-difluorophenyl)(hydroxy)methyl)-5-(3-methyl-1H-pyrazol-4-yl)-[1,2,4]triazolo[1,5-a]pyrazin-6-yl)benzonitrile]
EC50 [1]: < 10 nM | Ki [2]: < 0.01 µM

N#Cc1cccc(-c2nc(N)c3cc(C(=O)N4CC(O)C4)nn3c2-c2ccncn2)c1 [Example 12, 3-(4-Amino-2-(3-hydroxyazetidine-1-carbonyl)-7-(pyrimidin-4-yl)pyrazolo[1,5-a]pyrazin-6-yl)benzonitrile]
EC50 [1]: 10 to 100 nM | Ki [2, 3]: < 0.01 µM

N#Cc1cccc(-c2nc(N)c3nc(Cc4c(F)cccc4CN4CC(C#N)C4)nn3c2-c2ccncn2)c1 [Example 73, 1-(2-((8-amino-6-(3-cyanophenyl)-5-(pyrimidin-4-yl)-[1,2,4]triazolo[1,5-a]pyrazin-2-yl)methyl)-3-fluorobenzyl)azetidine-3-carbonitrile]
EC50 [1]: < 10 nM | Ki [2, 3]: < 0.01 µM

Cc1ncoc1-c1c(-c2cccc(C#N)c2)nc(N)c2nc(C(N)c3c(F)cccc3F)nn12 (stereo not shown) [Example 77, 3-(8-amino-2-(amino(2,6-difluorophenyl)methyl)-5-(4-methyloxazol-5-yl)-[1,2,4]triazolo[1,5-a]pyrazin-6-yl)benzonitrile]
EC50 [1]: < 10 nM | Ki [2, 3]: < 0.01 µM

Cc1nc(C(O)C(F)F)c(-c2c(-c3cccc(C#N)c3)nc(N)c3cc(Cc4ccccn4)nn23)o1 (stereo not shown) [Example 35, 3-(4-Amino-7-(4-(2,2-difluoro-1-hydroxyethyl)-2-methyloxazol-5-yl)-2-(pyridin-2-ylmethyl)pyrazolo[1,5-a]pyrazin-6-yl)benzonitrile]
EC50 [1]: < 10 nM | Ki [2, 3]: < 0.01 µM

N#Cc1cccc(-c2nc(N)c3nc(Cc4cccc5ccnn45)nn3c2-c2ccncn2)c1 [Example 46, 3-(8-Amino-2-(pyrazolo[1,5-a]pyridin-7-ylmethyl)-5-(pyrimidin-4-yl)-[1,2,4]triazolo[1,5-a]pyrazin-6-yl)benzonitrile]
EC50 [1]: < 10 nM | Ki [2, 3]: < 0.01 µM

N#Cc1cccc(-c2nc(N)c3cc(C4=CCOCC4)nn3c2-c2ccncn2)c1 [Example 24, 3-(4-Amino-2-(3,6-dihydro-2H-pyran-4-yl)-7-(pyrimidin-4-yl)pyrazolo[1,5-a]pyrazin-6-yl)benzonitrile]
EC50 [1]: 10 to 100 nM | Ki [2, 3]: < 0.01 µM

Cn1cnc(S(=O)(=O)N2CCCC2Cc2nc3c(N)nc(-c4cccc(C#N)c4F)cn3n2)c1 (stereo not shown) [Example 90, 3-(8-amino-2-((1-((1-methyl-1H-imidazol-4-yl)sulfonyl)pyrrolidin-2-yl)methyl)-[1,2,4]triazolo[1,5-a]pyrazin-6-yl)-2-fluorobenzonitrile]
EC50 [1]: 100 to 1000 nM | Ki [2, 3]: < 0.01 µM

CN(C)Cc1cccc(F)c1C(O)c1nc2c(N)nc(-c3cccc(C#N)c3)c(-c3ccncn3)n2n1 (single isomer, unassigned) [Example 101, 3-(8-amino-2-((2-((dimethylamino)methyl)-6-fluorophenyl)(hydroxy)methyl)-5-(pyrimidin-4-yl)-[1,2,4]triazolo[1,5-a]pyrazin-6-yl)benzonitrile]
EC50 [1]: < 10 nM | Ki [2, 4]: < 0.01 µM

Cc1ncoc1-c1c(-c2cccc(C#N)c2)nc(N)c2nc(C(O)c3ccccn3)nn12 (racemic) [Example 40, 3-(8-Amino-2-(hydroxy(pyridin-2-yl)methyl)-5-(4-methyloxazol-5-yl)-[1,2,4]triazolo[1,5-a]pyrazin-6-yl)benzonitrile]
EC50 [1]: < 10 nM | Ki [2, 3]: < 0.01 µM

N#Cc1cccc(-c2nc(N)c3nc(Cc4c(F)cccc4CNCC(N)=O)nn3c2-c2ccncn2)c1 [Example 69, 2-((2-((8-amino-6-(3-cyanophenyl)-5-(pyrimidin-4-yl)-[1,2,4]triazolo[1,5-a]pyrazin-2-yl)methyl)-3-fluorobenzyl)amino)acetamide]
EC50 [1]: < 10 nM | Ki [2, 3]: < 0.01 µM

N#Cc1cccc(-c2nc(N)c3nc(Cc4ncccc4-c4cnco4)nn3c2-c2ccncn2)c1 [Example 82, 3-(8-amino-2-((3-(oxazol-5-yl)pyridin-2-yl)methyl)-5-(pyrimidin-4-yl)-[1,2,4]triazolo[1,5-a]pyrazin-6-yl)benzonitrile]
EC50 [1]: < 10 nM | Ki [2, 3]: < 0.01 µM

N#Cc1cccc(-c2nc(N)c3nc(C(O)c4c(F)cccc4CN4CCCC4)nn3c2-c2ccncn2)c1 (single isomer, unassigned) [Example 111, 3-(8-amino-2-((2-fluoro-6-(pyrrolidin-1-ylmethyl)phenyl)(hydroxy)methyl)-5-(pyrimidin-4-yl)-[1,2,4]triazolo[1,5-a]pyrazin-6-yl)benzonitrile]
EC50 [1]: < 10 nM | Ki [2, 4]: < 0.01 µM

N#Cc1cccc(-c2nc(N)c3nc(Cc4c(F)cccc4CN4CCNC(=O)C4)nn3c2-c2ccncn2)c1 [Example 70, 3-(8-amino-2-(2-fluoro-6-((3-oxopiperazin-1-yl)methyl)benzyl)-5-(pyrimidin-4-yl)-[1,2,4]triazolo[1,5-a]pyrazin-6-yl)benzonitrile]
EC50 [1]: 10 to 100 nM | Ki [2, 3]: < 0.01 µM

Cc1cccnc1COc1nc2c(N)nc(-c3cccc(C#N)c3)c(-c3ccncn3)n2n1 [Example 119, 3-(8-amino-2-((3-methylpyridin-2-yl)methoxy)-5-(pyrimidin-4-yl)-[1,2,4]triazolo[1,5-a]pyrazin-6-yl)benzonitrile]
EC50 [1]: < 10 nM | Ki [2, 3]: < 0.01 µM

CN[C@H]1C[C@H](n2cc(-c3cccc(F)c3Cc3nc4c(N)nc(-c5cccc(C#N)c5F)cn4n3)cn2)C1 [Example 116, 3-(8-amino-2-(2-fluoro-6-(1-((trans)-3-(methylamino)cyclobutyl)-1H-pyrazol-4-yl)benzyl)-[1,2,4]triazolo[1,5-a]pyrazin-6-yl)-2-fluorobenzonitrile]
EC50 [1]: 10 to 100 nM | Ki [2, 3]: < 0.01 µM

Cn1cc(-c2ccccc2Cc2nc3c(N)nc(-c4cccc(C#N)c4)c(-c4ccncn4)n3n2)cn1 [Example 41, 3-(8-Amino-2-(2-(1-methyl-1H-pyrazol-4-yl)benzyl)-5-(pyrimidin-4-yl)-[1,2,4]triazolo[1,5-a]pyrazin-6-yl)benzonitrile]
EC50 [1]: < 10 nM | Ki [2, 3]: < 0.01 µM

Cn1nccc1-c1cccc(F)c1Cc1nc2c(N)nc(-c3cccc(C#N)c3)c(-c3ccncn3)n2n1 [Example 64, 3-(8-amino-2-(2-fluoro-6-(1-methyl-1H-pyrazol-5-yl)benzyl)-5-(pyrimidin-4-yl)-[1,2,4]triazolo[1,5-a]pyrazin-6-yl)benzonitrile]
EC50 [1]: < 10 nM | Ki [2, 3]: < 0.01 µM

N#Cc1cccc(-c2nc(N)c3nc(S(=O)(=O)c4ccccc4)nn3c2-c2ccncn2)c1 [Example 60, 3-(8-Amino-2-(phenylsulfonyl)-5-(pyrimidin-4-yl)-[1,2,4]triazolo[1,5-a]pyrazin-6-yl)benzonitrile]
EC50 [1]: 10 to 100 nM | Ki [2, 3]: < 0.01 µM

N#Cc1cccc(-c2nc(N)c3nc(C(O)c4ccccc4Cl)nn3c2-c2ccncn2)c1 (single isomer, unassigned) [Example 57, 3-(8-Amino-2-((2-chlorophenyl)(hydroxy)methyl)-5-(pyrimidin-4-yl)-[1,2,4]triazolo[1,5-a]pyrazin-6-yl)benzonitrile]
EC50 [1]: < 10 nM | Ki [2]: < 0.01 µM

N#Cc1cccc(-c2nc(N)c3nc(Cn4cccc5ccnc4-5)nn3c2-c2ccncn2)c1 [Example 33, 3-(2-((7H-pyrrolo[2,3-b]pyridin-7-yl)methyl)-8-amino-5-(pyrimidin-4-yl)-[1,2,4]triazolo[1,5-a]pyrazin-6-yl)benzonitrile]
EC50 [1]: < 10 nM | Ki [2, 3]: < 0.01 µM

N#Cc1cccc(-c2nc(N)c3nc(C(O)c4cc(F)ccc4F)nn3c2-c2ccncn2)c1 (single isomer, unassigned) [Example 51, 3-(8-Amino-2-((2,5-difluorophenyl)(hydroxy)methyl)-5-(pyrimidin-4-yl)-[1,2,4]triazolo[1,5-a]pyrazin-6-yl)benzonitrile]
EC50 [1]: < 10 nM | Ki [2]: < 0.01 µM

N#Cc1cccc(-c2nc(N)c3cc(C(=O)N4CCC4)nn3c2-c2ccncn2)c1 [Example 7, 3-(4-Amino-2-(azetidine-1-carbonyl)-7-(pyrimidin-4-yl)pyrazolo[1,5-a]pyrazin-6-yl)benzonitrile]
EC50 [1]: < 10 nM | Ki [2, 3]: < 0.01 µM
